Patent US11510410B2, “Pediculicidal composition” (DR. REDDY'S LABORATORIES, S.A., priority 2013, dated 2022)

Experiments:
[1] = test system: Pediculus humanus capitis eggs; assay: Ex vivo ovicidal efficacy, double-blind vehicle-controlled randomized clinical trial (Example 7)
Protocol: In this study the formulation as listed in Table 9 containing 0.74% 5,5′-dimethyl-2,2′-dipyridyl, (abametapir), was evaluated in a double-blind, vehicle-controlled randomized clinical trial. The primary aim of the trial was to evaluate the ovicidal efficacy of a single application of abametapir lotion 0.74% w/w intended for the treatment of head lice. The primary end point was the proportion of hatched eggs pre-treatment relative to proportion of hatched eggs post-treatment for the formulation containing abametapir and vehicle treated eggs following a 14 day incubation.
This ex vivo study involved identifying subjects with an active head lice infestation (active being defined as the presence of at least 3 live lice and at least 10 undamaged eggs). A minimum of 5 undamaged eggs were collected both pre and post treatment and their predicted viability assessed under a dissecting microscope before being incubated in a temperature and humidity controlled incubator (30° C. and 60% RH) for 14 days to provide adequate time for the eggs to hatch. After 14 days eggs were assessed as either hatched, unhatched, or partially hatched.

[2] = Safety of single application in subjects (Example 8); assay type: in vivo, human; settings: single application at two dose levels 0.37% w/w and 0.74% w/w
Protocol: (§1) One hundred and forty two (142) pediatric and adult subjects, three (3) years of age or older, with an active head lice infestation were enrolled in the study. This study assessed the efficacy of a single application of 2 different dose levels (0.37% w/w and 0.74% w/w of 5,5′-dimethyl-2,2′-dipyridyl) compared to a vehicle control. The formulations were prepared as described in Table 9. Subjects were treated for 10 minutes with a lotion containing one of two dose levels of 5,5′-dimethyl-2,2′-dipyridyl or the vehicle lotion. After 10 minutes the lotion was rinsed out of the subjects hair with water and towel dried. At day 1, 7 and 14 post treatment the hair was examined for the presence of live lice. If any live lice were detected on any of the three visits the subject was deemed a treatment failure. The primary endpoint to the study was that proportion of subjects who were lice free at day 14.

[3] = test system: head lice Pediculus humanus capitis infestation; assay: In vivo efficacy in subjects with head lice infestation, two dose levels (Example 8); settings: single 10 minute application, human subjects 3 years or older
Protocol: as §1

[4] = test system: Pediculus humanus humanus eggs; assay: In vitro ovicidal efficacy, 0.74% w/w composition versus vehicle (Example 6); settings: compared to the vehicle formulation
Protocol: This formulation including 0.5% BHT was also evaluated for its ovicidal activity.

[5] = Safety of single application in Phase 3 studies (Example 9); assay type: in vivo, human; settings: single application 0.74% w/w
Protocol: A total of seven hundred and four (704) pediatric and adult subjects, six (6) months of age or older, with an active head lice infestation were enrolled in two separate Phase 3 studies. These studies assessed the efficacy of a single application of 0.74% w/w abametapir compared to a vehicle control (refer Table 9, above). Subjects were treated for 10 minutes with a lotion containing abametapir or the vehicle lotion alone. After 10 minutes the lotion was rinsed out of the subjects hair with water and towel dried. At day 1, 7 and 14 post treatment the hair was examined for the presence of live lice. If any live lice were detected on any of the three visits the subject was deemed a treatment failure. The primary endpoint to the study was that proportion of index subjects (youngest member of the household with at least 3 live lice at the commencement of the study) who were lice free at all follow-up visits through day 14.

[6] = test system: Pediculus humanus capitis eggs; assay: Effect of formulated 5,5′-dimethyl-2,2′-dipyridyl on egg hatching (Example 3); settings: for Stage of development: eggs with eye development / Stage of development: eggs with no eye development / Stage of development: eggs hatched: 10 eggs
Protocol: Gravid female lice were permitted to lay eggs over a 24 hour period. The eggs were counted, inspected under a light microscope and all eggs that appeared undamaged were allocated to one of two treatment groups. One group of 10 eggs was exposed to 5,5′-dimethyl-2,2′-dipyridyl in a formulation (52-06-01), while the second group of 10 eggs was exposed to the formulation only (vehicle, 52-06-02) Table 2. The two formulations were as follows: […]
Following a 10 minute exposure to either the 52-06-01 or […] formulations the eggs were subsequently washed for 1 minute with water (˜37° C.) before being placed at 31° C. in a humid incubator and monitored over time for signs of development specifically of the eyes and through to subsequent hatching.

[7] = Day 1 of observation, formulation 52-06-01 (0.38%), 10 minute exposure
[8] = Day 4, formulation 52-06-01, 10 minute exposure
[9] = Day 5, formulation 52-06-01, 10 minute exposure
[10] = Day 6, formulation 52-06-01, 10 minute exposure
[11] = Day 7, formulation 52-06-01, 10 minute exposure
[12] = Day 12, formulation 52-06-01, 10 minute exposure

## Cc1ccc(-c2ccc(C)cn2)nc1 [5,5′-dimethyl-2,2′-dipyridyl]
[1]; eggs collected after single application, 14 day incubation, N = 25
  Egg hatch Post-treatment: 0%
[1]; eggs collected pre-treatment (baseline), 14 day incubation, N = 25
  Egg hatch Pre-treatment: 93.3%
[1]; generalized estimating equation model
  Total absolute reduction in hatch rate (CI 95%): 92.9%
[1]; p < 0.0001
  The treatment difference in the absolute reduction of hatch rates (abametapir minus Vehicle): 50.6%
[1]; post-treatment, 14 day incubation
  ovicidal efficacy (eggs treated failed to hatch): 100%
[2]
  safety results: safe and well tolerated
[3]; 0.37% w/w lotion
  subjects with treatment success (lice free at day 14): 67.4%
[3]; 0.74% w/w lotion
  subjects with treatment success (lice free at day 14): 85.7%
[4]
  ovicidal activity (in words): significant ovicidal activity
[5]
  safety results: safe and well tolerated
[6]; [7]
  Stage of development: eggs with eye development: 1 eye development
  Stage of development: eggs with no eye development: 9 no eye development
[6]; [8]
  Stage of development: eggs hatched: 1 hatched
  Stage of development: eggs with eye development: 1 eye development
  Stage of development: eggs with no eye development: 8 no eye development
[6]; [9]
  Stage of development: eggs hatched: 1 hatched
  Stage of development: eggs with eye development: 1 eye development
  Stage of development: eggs with no eye development: 8 no eye development
[6]; [10]
  Stage of development: eggs hatched: 1 hatched
  Stage of development: eggs with eye development: 1 eye development
  Stage of development: eggs with no eye development: 8 no eye development
[6]; [11]
  Stage of development: eggs hatched: 1 hatched
  Stage of development: eggs with eye development: 1 eye development
  Stage of development: eggs with no eye development: 8 no eye development
[6]; [12]
  Stage of development: eggs hatched: 1 hatched
  Stage of development: eggs with eye development: 1 eye development
  Stage of development: eggs with no eye development: 8 no eye development
[6]; overall, ten eggs, 0.37% w/w formulation, 10 minute exposure
  eggs in the treatment arm failed to hatch: 90%
